# Measured values reported in BindingDB's records for patent US20250326732 (Pretzel Therapeutics, 2025).
# Target: DNA-directed RNA polymerase, mitochondrial (Homo sapiens, UniProt O00411)
# Assay: Biological/Biochemical Evaluation
# Method: The ability of some compounds of the present invention to inhibit POLRMT were determined in a homogeneous TR-FRET Assay using high-throughput screening in a 384-well plate format. […] Detection of the product is facilitated by hybridization of two DNA-oligonucleotide probes to specific and adjacent sequences within the RNA product sequence. Upon annealing of the probes, two fluorophores are coupled directly to an acceptor nucleotide probe (ATTO647, 5′), or introduced via a coupled streptavidin with a biotinylated donor nucleotide probe (Europium cryptate) that is brought into sufficient proximity to serve as a fluorescence-donor-acceptor pair. […] The DNA template is restriction linearized proximal to the promotor 3′-end (pUC-LSP). […] No nucleotide triphosphate mix is added to negative control samples. Microplates with compounds to be tested in the assay are prepared from 10 mM compound stocks in 100% DMSO, equal amounts of DMSO without any compound are added to positive control and negative control samples.
# DNA-directed RNA polymerase, mitochondrial, sequence (O00411 whole entry): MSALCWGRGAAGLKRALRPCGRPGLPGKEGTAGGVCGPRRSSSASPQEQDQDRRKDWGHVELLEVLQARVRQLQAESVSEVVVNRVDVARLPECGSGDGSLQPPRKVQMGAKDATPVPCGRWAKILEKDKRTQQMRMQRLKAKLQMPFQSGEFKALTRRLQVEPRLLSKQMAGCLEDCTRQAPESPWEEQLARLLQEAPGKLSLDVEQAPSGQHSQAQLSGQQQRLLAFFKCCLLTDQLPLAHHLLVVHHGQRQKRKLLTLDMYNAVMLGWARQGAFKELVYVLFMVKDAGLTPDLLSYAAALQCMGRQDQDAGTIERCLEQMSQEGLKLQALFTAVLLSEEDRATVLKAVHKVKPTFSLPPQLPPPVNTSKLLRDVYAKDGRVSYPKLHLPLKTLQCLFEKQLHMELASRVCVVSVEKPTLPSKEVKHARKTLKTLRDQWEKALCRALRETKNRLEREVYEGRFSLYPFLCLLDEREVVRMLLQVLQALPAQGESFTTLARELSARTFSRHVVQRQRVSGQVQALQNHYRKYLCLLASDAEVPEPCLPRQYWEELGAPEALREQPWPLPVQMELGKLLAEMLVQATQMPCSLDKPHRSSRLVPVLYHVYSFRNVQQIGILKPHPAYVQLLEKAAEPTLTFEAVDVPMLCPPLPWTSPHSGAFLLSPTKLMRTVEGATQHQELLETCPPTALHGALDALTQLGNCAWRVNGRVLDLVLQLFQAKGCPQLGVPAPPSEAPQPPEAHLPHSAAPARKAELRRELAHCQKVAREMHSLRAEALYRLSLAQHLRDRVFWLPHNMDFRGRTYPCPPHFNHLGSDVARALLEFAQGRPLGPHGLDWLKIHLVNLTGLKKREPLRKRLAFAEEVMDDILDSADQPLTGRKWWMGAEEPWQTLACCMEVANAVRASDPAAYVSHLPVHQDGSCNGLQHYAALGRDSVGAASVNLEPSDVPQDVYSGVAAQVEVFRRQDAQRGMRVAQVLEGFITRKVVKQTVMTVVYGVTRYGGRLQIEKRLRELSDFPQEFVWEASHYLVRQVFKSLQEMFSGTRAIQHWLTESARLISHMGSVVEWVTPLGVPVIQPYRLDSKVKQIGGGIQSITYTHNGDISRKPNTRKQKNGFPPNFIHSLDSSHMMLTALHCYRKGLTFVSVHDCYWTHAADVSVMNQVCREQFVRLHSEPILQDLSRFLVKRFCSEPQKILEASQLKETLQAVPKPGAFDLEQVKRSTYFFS
row,Structure (SMILES),IC50
1,"CC(=Cc1ccc2c(-c3ccccc3C)cc(=O)oc2c1)C(=O)N(C)C [US20250326732, Example 65]",17 µM
2,"CC(=Cc1ccc2c(-c3ccccc3C)cc(=O)oc2c1)C(N)=O [US20250326732, Example 68]",0.6 µM
3,"CNC(=O)C(C)=Cc1ccc2c(-c3ccccc3C)cc(=O)oc2c1 [US20250326732, Example 67]",6 µM
4,"CC(=Cc1ccc2c(-c3ccccc3C)cc(=O)oc2c1)C(=O)N(C)C [US20250326732, Example 64]",0.3 µM
5,"CNC(=O)C(C)=Cc1ccc2c(-c3ccccc3C)cc(=O)oc2c1 [US20250326732, Example 66]",0.5 µM

# More lines, now with the values ahead:
row,IC50,Structure (SMILES)
1,17 µM,"COC=C(Cc1ccc2c(-c3ccccc3C)cc(=O)oc2c1)C(N)=O [US20250326732, Example 207]"
2,0.9 µM,"C=C(Nc1ccc2c(-c3ccccc3C)cc(=O)oc2c1)C(N)=O [US20250326732, Example 189]"
3,0.9 µM,"CN(C=CC(N)=O)c1ccc2c(-c3ccc(F)cc3Cl)cc(=O)oc2c1 [US20250326732, Example 137]"
4,2 µM,"COC=C(Nc1ccc2c(-c3ccccc3)cc(=O)oc2c1)C(N)=O [US20250326732, Example 198]"
5,3 µM,"COC=C(Cc1ccc2c(-c3ccccc3C)cc(=O)oc2c1)C(N)=O [US20250326732, Example 208]"
